One assay concerns the target T1, human TRPV1 (Homo sapiens, UniProt Q8NER1).
T1 construct: expressed in transfected cells; host or cells: HEK293 (hTRPV1/HEK293), zeocin selection
Kind of assay: Functional assay: block of capsaicin-induced Ca2+ influx, human assay (hTRPV1/HEK293, FLIPR). The class given is cell-based. The settings on record: hTRPV1/HEK293 cells, 150 nM capsaicin challenge, Fluo-3 fluorescence; mean; > value = solubility limit in assay medium. As for the experimental part: (§1) Functional assay: block of capsaicin-induced Ca^2+ influx
(§2) HEK293 cells were transfected with human TRPV1 cloned in pcDNA3.1zeo(+) using the Effectene non-liposomal lipid based transfection kit (Qiagen) (hTRPV1/HEK293). hTRPV1/HEK293 cells were routinely grown as monolayers under selection in zeocin (200 μg/mL; Invitrogen) in Dulbecco's Modified Eagle Medium (DMEM, Gibco BRL) supplemented with 10% fetal bovine serum, and penicillin/streptomycin (50 units/mL) in 5% CO2 at 37° C. Cells were passaged frequently, every 3-5 days, to avoid overgrowth, depletion of essential medium components, or acidic medium exposure. Cells were passaged using a brief wash in 0.05% trypsin with 1 mM EDTA, followed by dissociation in divalent-free phosphate-buffered saline (Hyclone #SH30028.02). […] The assay buffer was composed of 130 mM NaCl, 2 mM KCl, 2 mM MgCl2, 10 mM HEPES, 5 mM glucose, and either 2 mM or 20 μM CaCl2. On the day of the experiment, the culture medium was replaced with 2 mM calcium assay buffer using an automated plate washer (ELx405; Biotek, VT). […] After loading the cells, the dye solution was replaced with 50 μL/well of 20 μM calcium assay buffer using the ELx405 plate washer. Test compounds (50 μL/well) were added to the plate and incubated for 30 min. […] The IC50 values were determined. […] The contents of the wells were mixed 3 times (40 μL mix volume) immediately after the additions were made. Concentration-dependence of block was determined by exposing each well of cells in duplicate rows of a 96-well plate to a serial dilution of test compound. The concentration series usually started at 10 μM with a three-fold serial decrement in concentration. The magnitude of the capsaicin response was determined by measuring the change in fluo3 fluorescence before and 100 seconds after the addition of the agonist. Data were analyzed using a non-linear regression program (Origin; OriginLab, MA).
(§3) IC50 values shown are the average (mean) of the results obtained. […] Compounds were tested in either the free base or trifluoroacetic acid salt form.

The next assay addresses T2, rat TRPV1 (Rattus norvegicus, UniProt O35433).
T2 construct: expressed in transfected cells; host or cells: HEK293 (rTRPV1/HEK293), geneticin selection
Kind of assay: Functional assay: block of capsaicin-induced Ca2+ influx, rat assay (rTRPV1/HEK293, FLIPR). The class given is cell-based. The following applies: rTRPV1/HEK293 cells, capsaicin challenge, Fluo-3 fluorescence; mean; > value = solubility limit in assay medium. As for the experimental part: as §1, §2
This assay was performed similarly to the human assay described above, but using HEK293 cells transfected with rat TRPV1 (rTRPV1/HEK293).
as §3

Results on 25 compounds are retold here after patent US20080004253A1, “Thiazolopyrimidine modulators of TRPV1” (priority 2006, published 2008).

SMILES strings stand for the structures.

T2 sequence (O35433 whole entry): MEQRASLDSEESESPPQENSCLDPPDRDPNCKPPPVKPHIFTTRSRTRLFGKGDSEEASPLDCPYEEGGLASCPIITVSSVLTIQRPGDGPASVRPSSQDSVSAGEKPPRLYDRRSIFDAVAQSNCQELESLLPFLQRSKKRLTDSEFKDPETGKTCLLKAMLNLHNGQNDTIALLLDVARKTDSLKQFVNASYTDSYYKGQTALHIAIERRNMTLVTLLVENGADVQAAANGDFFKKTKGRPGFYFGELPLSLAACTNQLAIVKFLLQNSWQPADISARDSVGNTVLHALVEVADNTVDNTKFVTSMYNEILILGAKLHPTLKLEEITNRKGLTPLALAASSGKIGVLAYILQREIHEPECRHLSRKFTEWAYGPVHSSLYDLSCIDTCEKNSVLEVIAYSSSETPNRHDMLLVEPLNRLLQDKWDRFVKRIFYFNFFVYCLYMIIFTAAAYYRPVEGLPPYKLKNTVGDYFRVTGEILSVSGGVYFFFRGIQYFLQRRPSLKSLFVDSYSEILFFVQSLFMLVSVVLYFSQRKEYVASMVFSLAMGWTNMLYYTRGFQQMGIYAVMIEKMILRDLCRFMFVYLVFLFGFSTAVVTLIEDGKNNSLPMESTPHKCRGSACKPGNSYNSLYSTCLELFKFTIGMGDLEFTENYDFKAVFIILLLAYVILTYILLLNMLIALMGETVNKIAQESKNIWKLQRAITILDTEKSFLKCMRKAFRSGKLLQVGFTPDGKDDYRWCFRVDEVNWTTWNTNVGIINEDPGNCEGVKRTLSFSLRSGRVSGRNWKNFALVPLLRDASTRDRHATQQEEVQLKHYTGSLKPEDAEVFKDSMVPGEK
T1 sequence (Q8NER1 whole entry): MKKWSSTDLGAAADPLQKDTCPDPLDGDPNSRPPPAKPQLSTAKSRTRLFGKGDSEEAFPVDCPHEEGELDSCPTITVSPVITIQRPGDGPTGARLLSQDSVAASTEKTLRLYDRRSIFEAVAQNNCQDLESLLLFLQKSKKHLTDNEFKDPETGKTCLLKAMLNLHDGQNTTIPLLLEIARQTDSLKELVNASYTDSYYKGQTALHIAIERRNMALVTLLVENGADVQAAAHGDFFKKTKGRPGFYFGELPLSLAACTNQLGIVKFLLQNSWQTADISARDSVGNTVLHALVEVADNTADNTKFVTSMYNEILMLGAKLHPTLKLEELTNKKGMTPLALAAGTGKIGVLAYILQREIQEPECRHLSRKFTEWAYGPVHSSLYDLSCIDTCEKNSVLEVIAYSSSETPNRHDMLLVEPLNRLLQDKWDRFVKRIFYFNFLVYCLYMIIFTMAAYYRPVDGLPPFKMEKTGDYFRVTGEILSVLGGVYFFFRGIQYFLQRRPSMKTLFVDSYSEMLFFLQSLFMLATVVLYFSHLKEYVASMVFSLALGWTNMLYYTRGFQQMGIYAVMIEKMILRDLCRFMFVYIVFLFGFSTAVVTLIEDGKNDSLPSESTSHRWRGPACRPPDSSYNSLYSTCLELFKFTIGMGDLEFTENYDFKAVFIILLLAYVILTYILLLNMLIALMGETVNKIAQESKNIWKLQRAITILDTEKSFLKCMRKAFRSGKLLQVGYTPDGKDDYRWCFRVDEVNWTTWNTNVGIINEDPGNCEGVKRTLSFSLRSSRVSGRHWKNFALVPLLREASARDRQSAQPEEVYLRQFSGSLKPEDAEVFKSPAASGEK

In the case of `FC(F)(F)c1ccc(Nc2nc(N3CCNCC3)nc3sc(Nc4c(Cl)cccc4Cl)nc23)cc1` [Example 163, N^2-(2,6-Dichloro-phenyl)-5-piperazin-1-yl-N^7-(4-trifluoromethyl-phenyl)-thiazolo[5,4-d]pyrimidine-2,7-diamine], the IC50 against human TRPV1 was 5.95 µM; at rat TRPV1, 5.14 µM.

As to `Cc1cccc(C)c1Nc1nc2c(Nc3ccc(C(C)O)cc3)ncnc2s1` (racemic) [Example 140, (racemic)-1-{4-[2-(2,6-Dimethyl-phenylamino)-thiazolo[5,4-d]pyrimidin-7-ylamino]-phenyl}-ethanol], the figures for the half-inhibitory concentration (IC50) at human TRPV1 and on rat TRPV1 were 0.324 µM and 0.185 µM, respectively.

For the compound `Cc1cccc(C)c1Nc1nc2c(NC3Cc4ccccc4C3)ncnc2s1` [Example 41, N^2-(2,6-Dimethyl-phenyl)-N^7-indan-2-yl-thiazolo[5,4-d]pyrimidine-2,7-diamine], the IC50 is > 6.67 µM against human TRPV1 and 2.04 µM against rat TRPV1.

Take `Cc1cc(C(F)(F)F)ccc1Nc1ncnc2sc(Nc3c(C)cccc3C)nc12` [Example 159, N^2-(2,6-Dimethyl-phenyl)-N^7-(2-methyl-4-trifluoromethyl-phenyl)-thiazolo[5,4-d]pyrimidine-2,7-diamine]: the figures for the IC50 against human TRPV1 and against rat TRPV1 were > 2.22 µM and 1.46 µM, respectively.

As for `FC(F)(F)c1ccc(Nc2ncnc3sc(Nc4c(Cl)cc(CN5CCOCC5)cc4Cl)nc23)cc1` [Example 238, N^2-(2,6-Dichloro-4-morpholin-4-ylmethyl-phenyl)-N^7-(4-trifluoromethyl-phenyl)-thiazolo[5,4-d]pyrimidine-2,7-diamine], the IC50 came to 0.223 µM on human TRPV1 and 0.215 µM on rat TRPV1.

On to `FC(F)(F)c1ccc(Nc2nc(NCC3CC3)nc3sc(Nc4c(Cl)cccc4Cl)nc23)cc1` [Example 62, N^5-Cyclopropylmethyl-N^2-(2,6-dichloro-phenyl)-N^7-(4-trifluoromethyl-phenyl)-thiazolo[5,4-d]pyrimidine-2,5,7-triamine], for which the IC50 against human TRPV1 was 0.02 µM; against rat TRPV1, 0.004 µM.

On to `Cc1cccc(Cl)c1Nc1nc2c(Nc3ccc(C(F)(F)F)nc3)ncnc2s1` [Example 15, N^2-(2-Chloro-6-methyl-phenyl)-N^7-(6-trifluoromethyl-pyridin-3-yl)-thiazolo[5,4-d]pyrimidine-2,7-diamine], for which the IC50 was 0.013 µM against human TRPV1 and 0.005 µM against rat TRPV1.

`Cc1nc(Nc2ccc(C#N)cc2)c2nc(Nc3c(Cl)cccc3Cl)sc2n1` [Example 96, 4-[2-(2,6-Dichloro-phenylamino)-5-methyl-thiazolo[5,4-d]pyrimidin-7-ylamino]-benzonitrile]: the 50% inhibitory concentration (IC50) at human TRPV1 worked out at 0.012 µM; on rat TRPV1 it was 0.009 µM.

As to `Cc1nc(Nc2ccc(C(=O)N(C)C)cc2)c2nc(Nc3c(Cl)cccc3Cl)sc2n1` [Example 157, 4-[2-(2,6-Dichloro-phenylamino)-5-methyl-thiazolo[5,4-d]pyrimidin-7-ylamino]-N,N-dimethyl-benzamide], the IC50 was determined as 1.92 µM at human TRPV1 and 1.21 µM on rat TRPV1.

For `Cc1nc(Nc2ccc(C(F)(F)F)c(Cl)c2)c2nc(Nc3c(C)cccc3C)sc2n1` [Example 247, N^7-(3-Chloro-4-trifluoromethyl-phenyl)-N^2-(2,6-dimethyl-phenyl)-5-methyl-thiazolo[5,4-d]pyrimidine-2,7-diamine], the IC50 on human TRPV1 came to 0.035 µM; at rat TRPV1, 0.019 µM.

For the compound `Cc1cccc(C)c1Nc1nc2c(Nc3ccc(C(=O)N(C)C)cc3)ncnc2s1` [Example 145, 4-[2-(2,6-Dimethyl-phenylamino)-thiazolo[5,4-d]pyrimidin-7-ylamino]-N,N-dimethyl-benzamide], the IC50 against human TRPV1 was 0.452 µM; at rat TRPV1, 0.442 µM.

For the compound `Cc1cccc(C)c1Nc1nc2c(Nc3ccc(C(F)(F)F)cc3Cl)ncnc2s1` [Example 167, N^7-(2-Chloro-4-trifluoromethyl-phenyl)-N^2-(2,6-dimethyl-phenyl)-thiazolo[5,4-d]pyrimidine-2,7-diamine], the IC50 against human TRPV1 and against rat TRPV1 was > 6.67 µM in each case.

For the compound `CC(C)(O)CNc1nc(Nc2ccc(C(F)(F)F)cc2)c2nc(Nc3c(Cl)cccc3Cl)sc2n1` [Example 251, 1-[2-(2,6-Dichloro-phenylamino)-7-(4-trifluoromethyl-phenylamino)-thiazolo[5,4-d]pyrimidin-5-ylamino]-2-methyl-propan-2-ol], the IC50 stood at 0.29 µM against human TRPV1 and 0.11 µM against rat TRPV1.

As to `Cc1nc(Nc2ccc(C(C)(C)C)cc2)c2nc(Nc3c(Cl)cccc3Cl)sc2n1` [Example 7, N^7-(4-tert-Butyl-phenyl)-N^2-(2,6-dichloro-phenyl)-5-methyl-thiazolo[5,4-d]pyrimidine-2,7-diamine], the IC50 against human TRPV1 worked out at 0.005 µM; at rat TRPV1 it was 0.001 µM.

Consider `Cc1nc(Nc2ccc(C(F)(F)F)cc2)c2nc(Nc3c(Cl)cccc3Cl)sc2n1` [Example 5, N^2-(2,6-Dichloro-phenyl)-5-methyl-N^7-(4-trifluoromethyl-phenyl)-thiazolo[5,4-d]pyrimidine-2,7-diamine], for which the IC50 against human TRPV1 turned out to be 0.003 µM; against rat TRPV1, 0.002 µM.

Take `FC(F)(F)c1ccc(Nc2ncnc3sc(Nc4c(Cl)cccc4Cl)nc23)cc1Cl` [Example 4, N^7-(3-Chloro-4-trifluoromethyl-phenyl)-N^2-(2,6-dichloro-phenyl)-thiazolo[5,4-d]pyrimidine-2,7-diamine]: the IC50 was determined as 0.015 µM against human TRPV1 and 0.008 µM against rat TRPV1.

For the compound `O=S(=O)(c1ccc(Nc2ncnc3sc(Nc4ccccc4Cl)nc23)cc1)N1CCOCC1` [Example 216, N^2-(2-Chlorophenyl)-N^7-[4-(morpholin-4-ylsulfonyl)phenyl][1,3]thiazolo[5,4-d]pyrimidine-2,7-diamine], the IC50 against human TRPV1 stood at 0.024 µM; on rat TRPV1, 0.015 µM.

`CN(C)S(=O)(=O)c1ccc(Nc2ncnc3sc(Nc4ccccc4Cl)nc23)cc1` [Example 113, 4-[2-(2-Chloro-phenylamino)-thiazolo[5,4-d]pyrimidin-7-ylamino]-N,N-dimethyl-benzenesulfonamide]: the IC50 at human TRPV1 is 0.038 µM; against rat TRPV1, 0.017 µM.

Take `Fc1cc(Nc2ncnc3sc(Nc4c(Cl)cccc4Cl)nc23)ccc1C(F)(F)F` [Example 215, N^2-(2,6-Dichloro-phenyl)-N^7-(3-fluoro-4-trifluoromethyl-phenyl)-thiazolo[5,4-d]pyrimidine-2,7-diamine]: the half-inhibitory concentration (IC50) against human TRPV1 was 0.015 µM; at rat TRPV1, 0.008 µM.

For `Cc1nc(Nc2ccc(C(F)(F)F)cc2)c2nc(N(C)c3c(Cl)cccc3Cl)sc2n1` [Example 23, N^2-(2,6-Dichloro-phenyl)-5,N^2-dimethyl-N^7-(4-trifluoromethyl-phenyl)-thiazolo[5,4-d]pyrimidine-2,7-diamine], the IC50 against human TRPV1 amounted to 1.14 µM; against rat TRPV1 it was 0.319 µM.

In the case of `Cc1cccc(C)c1Nc1nc2c(Nc3ccc(S(C)(=O)=O)c(F)c3)ncnc2s1` [Example 97, N^2-(2,6-Dimethyl-phenyl)-N^7-(3-fluoro-4-methanesulfonyl-phenyl)-thiazolo[5,4-d]pyrimidine-2,7-diamine], the IC50 on human TRPV1 turned out to be 0.012 µM; against rat TRPV1, 0.032 µM.

Turning to `CSc1ccc(Nc2nc(C)nc3sc(Nc4c(Cl)cccc4Cl)nc23)cc1` [Example 94, N^2-(2,6-Dichloro-phenyl)-5-methyl-N^7-(4-methylsulfanyl-phenyl)-thiazolo[5,4-d]pyrimidine-2,7-diamine], the IC50 at human TRPV1 is 0.008 µM; at rat TRPV1 it was 0.003 µM.

Consider `CSc1ccccc1Nc1nc2c(Nc3ccc(C(F)(F)F)cc3)ncnc2s1` [Example 196, N^2-(2-Methylsulfanyl-phenyl)-N^7-(4-trifluoromethyl-phenyl)-thiazolo[5,4-d]pyrimidine-2,7-diamine], for which the 50% inhibitory concentration (IC50) against human TRPV1 stood at 0.064 µM; at rat TRPV1 it was 0.037 µM.

On to `COC(=O)C(C)(C)c1ccc(Nc2ncnc3sc(Nc4c(C)noc4C)nc23)cc1` [Example 222, Methyl 2-[4-({2-[(3,5-dimethylisoxazol-4-yl)amino][1,3]thiazolo[5,4-d]pyrimidin-7-yl}amino)phenyl]-2-methylpropanoate], for which the results for the concentration for half-maximal inhibition (IC50) against human TRPV1 and against rat TRPV1 were 0.1 µM and 0.072 µM, respectively.

`FC(F)(F)c1ccc(Nc2nc(N3CCOCC3)nc3sc(Nc4c(Cl)cccc4Cl)nc23)cc1` [Example 64, N^2-(2,6-Dichloro-phenyl)-5-morpholin-4-yl-N^7-(4-trifluoromethyl-phenyl)-thiazolo[5,4-d]pyrimidine-2,7-diamine]: the IC50 against human TRPV1 was determined as 0.041 µM; against rat TRPV1, 0.017 µM.
